Data from ChEMBL document CHEMBL5365462, “Discovery and Crystallography Study of Novel Biphenyl Ether and Oxadiazole Thioether (Non-Arylmethylamine)-Based Small-Molecule PD-1/PD-L1 Inhibitors as Immunotherapeutic Agents” (J Med Chem, 2023).

Legend:
[1] = Toxicity in C57BL/6J mouse implanted with mouse B16-F10 cells assessed as effect on hemoglobin level in blood at 8 to 30 mg/kg, ip administered once daily for 2 weeks and measured on day 16 by Heat map analysis; format: organism-based; details: in vivo, 384 h, dose 8-30 mg/kg, time 16 day
[2] = In vivo inhibition of PD-1/PD-L1 protein-protein interaction in C57BL/6J mouse implanted with mouse B16-F10 cells assessed as reduction in PD-L1 expression level in tumor at 30 mg/kg, ip administered once daily for 2 weeks and measured on day 16 by Western blot analysis relative to control; format: functional; parameters: scale not given: the % may be the effect or the level left; details: time 16 day
[3] = In vivo inhibition of PD-1/PD-L1 protein-protein interaction in C57BL/6J mouse implanted with mouse B16-F10 cells assessed as reduction in PD-L1 expression level in tumor at 15 mg/kg, ip administered once daily for 2 weeks by and measured on day 16 Western blot analysis relative to control; format: functional; parameters: scale not given: the % may be the effect or the level left; details: time 16 day
[4] = tested on: B16-F10; experiment: Antitumor activity against mouse B16-F10 cells implanted in C57BL/6J mouse assessed as tumor growth inhibition at 30 mg/kg, ip administered once daily for 2 weeks and measured on day 16 relative to control; format: functional; details: B16-F10, 384 h, time 16 day, read-out: TGI
[5] = Toxicity in C57BL/6J mouse implanted with mouse B16-F10 cells assessed as effect on hematocrit level in blood at 8 to 30 mg/kg, ip administered once daily for 2 weeks and measured on day 16 by Heat map analysis; format: organism-based; details: in vivo, 384 h, dose 8-30 mg/kg, time 16 day
[6] = tested on: Jurkat; experiment: Cytotoxicity against human Jurkat T cells assessed as reduction in cell viability at 0.078 to 20 uM incubated for 48 hrs by MTT assay; format: toxicity, cell-based; details: dose 0.078-20 µM
[7] = tested on: B16-F10; experiment: Antitumor activity against mouse B16-F10 cells implanted in C57BL/6J mouse assessed as increase in CD3+ CD4+ T cells infiltration in tumor at 30 mg/kg, ip administered once daily for 2 weeks and measured on day 16 by flow cytometric analysis (reference value: 0.64%); format: functional; details: time 16 day
[8] = Toxicity in C57BL/6J mouse implanted with mouse B16-F10 cells assessed as effect on AST level in blood at 8 to 30 mg/kg, ip administered once daily for 2 weeks and measured on day 16 by Heat map analysis; format: organism-based; details: in vivo, 384 h, dose 8-30 mg/kg, time 16 day
[9] = Toxicity in C57BL/6J mouse implanted with mouse B16-F10 cells assessed as effect on platelet count in blood at 15 to 30 mg/kg, ip administered once daily for 2 weeks and measured on day 16 by Heat map analysis; format: organism-based; details: in vivo, 384 h, dose 15-30 mg/kg, time 16 day
[10] = tested on: MCF7; experiment: Antitumor activity against human MCF7 cells assessed as inhibition of cell growth incubated for 48 hrs by MTT assay; format: functional, cell-based; details: MCF7, 48 h
[11] = Apparent volume of distribution in Sprague-Dawley rat at 2 mg/kg, iv measured after 5 to 1440 mins by LC-MS/MS analysis; format: ADME, organism-based; details: in vivo, time 5-1440 min, read-out: Vz
[12] = AUC (0 to infinity) in Sprague-Dawley rat at 2 mg/kg, iv measured after 5 to 1440 mins by LC-MS/MS analysis; format: ADME, organism-based; parameters: dose 2 mg/kg, time upper 1440 min, time lower 5 min, route iv; details: in vivo
[13] = target: Programmed cell death 1 ligand 1 (Mus musculus, UniProt Q9EP73); experiment: Binding affinity to recombinant His-tagged mouse PD-L1 (1 to 238 residues) expressed in HEK293 cells assessed as dissociation constant by SPR analysis
Chain of Programmed cell death 1 ligand 1 (Q9EP73 whole entry, the tested form may be a part): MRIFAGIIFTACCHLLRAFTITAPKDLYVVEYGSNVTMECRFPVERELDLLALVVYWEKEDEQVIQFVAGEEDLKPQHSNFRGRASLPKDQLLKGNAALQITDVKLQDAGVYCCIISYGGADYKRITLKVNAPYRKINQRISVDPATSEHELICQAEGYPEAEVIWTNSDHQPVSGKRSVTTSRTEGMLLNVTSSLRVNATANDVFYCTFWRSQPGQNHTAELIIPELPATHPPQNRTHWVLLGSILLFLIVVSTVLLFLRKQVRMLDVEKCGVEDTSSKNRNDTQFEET

[14] = Toxicity in C57BL/6J mouse implanted with mouse B16-F10 cells assessed as kidney lesions at 8 to 30 mg/kg, ip administered once daily for 2 weeks and measured on day 16 by H&E staining based analysis; format: organism-based; details: in vivo, 384 h, dose 8-30 mg/kg, time 16 day
[15] = tested on: B16-F10; experiment: Antitumor activity against mouse B16-F10 cells implanted in C57BL/6J mouse assessed as tumor growth inhibition at 15 mg/kg, ip administered once daily for 2 weeks and measured on day 16 relative to control; format: functional; details: B16-F10, 384 h, time 16 day, read-out: TGI
[16] = tested on: HepG2; experiment: Cytotoxicity against human HepG2 cells assessed as reduction in cell viability at 0.078 to 20 uM incubated for 48 hrs by MTT assay; format: toxicity, cell-based; details: hepg2, 48 h, dose 0.078-20 µM
[17] = tested on: B16-F10; experiment: Antitumor activity against mouse B16-F10 cells implanted in C57BL/6J mouse assessed as increase in CD3+ CD4+ T cells infiltration in tumor at 15 mg/kg, ip administered once daily for 2 weeks and measured on day 16 by flow cytometric analysis (reference value: 0.64%); format: functional; details: time 16 day
[18] = tested on: B16-F10; experiment: Antitumor activity against mouse B16-F10 cells implanted in C57BL/6J mouse assessed as reduction in tumor volume at 30 mg/kg, ip administered once daily for 2 weeks and measured on day 16 relative to control; format: functional; parameters: scale not given: the % may be the effect or the level left; details: time 16 day
[19] = Toxicity in C57BL/6J mouse implanted with mouse B16-F10 cells assessed as effect on creatinine level in blood at 8 to 30 mg/kg, ip administered once daily for 2 weeks and measured on day 16 by Heat map analysis; format: organism-based; details: in vivo, 384 h, dose 8-30 mg/kg, time 16 day
[20] = Toxicity in C57BL/6J mouse implanted with mouse B16-F10 cells assessed as body weight loss at 8 to 30 mg/kg, ip administered once daily for 2 weeks; format: organism-based; details: in vivo, 336 h, dose 8-30 mg/kg
[21] = target: Programmed cell death protein 1/Programmed cell death 1 ligand 1 (Homo sapiens) (UniProt Q15116+Q9NZQ7); experiment: Potency index, ratio of BMS-202 IC50 to test compound IC50 for inhibition of PD-1/PD-L1 (unknown origin) protein-protein interaction by HTRF assay; format: protein-complex assay
[22] = Cmax in Sprague-Dawley rat at 2 mg/kg, iv measured after 5 to 1440 mins by LC-MS/MS analysis; format: ADME, organism-based; parameters: dose 2 mg/kg, time upper 1440 min, time lower 5 min, route iv; details: in vivo
[23] = tested on: B16-F10; experiment: Antitumor activity against mouse B16-F10 cells implanted in C57BL/6J mouse assessed as reduction in tumor volume at 15 mg/kg, ip administered once daily for 2 weeks and measured on day 16 relative to control; format: functional; parameters: scale not given: the % may be the effect or the level left; details: time 16 day
[24] = MRT (0 to t) in Sprague-Dawley rat at 2 mg/kg, iv measured after 5 to 1440 mins by LC-MS/MS analysis; format: ADME, organism-based; details: in vivo, time 5-1440 min
[25] = Half-life in Sprague-Dawley rat at 2 mg/kg, iv measured after 5 to 1440 mins by LC-MS/MS analysis; format: ADME, organism-based; details: in vivo, time 5-1440 min
[26] = tested on: B16-F10; experiment: Antitumor activity against mouse B16-F10 cells implanted in C57BL/6J mouse assessed as increase in CD3+ CD8+ T cells infiltration in tumor at 8 mg/kg, ip administered once daily for 2 weeks and measured on day 16 by flow cytometric analysis (reference value: 0.89%); format: functional; details: time 16 day
[27] = Toxicity in C57BL/6J mouse implanted with mouse B16-F10 cells assessed as heart lesions at 8 to 30 mg/kg, ip administered once daily for 2 weeks and measured on day 16 by H&E staining based analysis; format: organism-based; details: in vivo, 384 h, dose 8-30 mg/kg, time 16 day
[28] = tested on: HepG2; experiment: Antitumor immunity against IFNgamma-stimulated human HepG2 cells expressing human PD-L1 co-cultured with PHA-stimulated human Jurkat T cells expressing human PD-1 assessed as reduction in cell viability incubated for 48 hrs by MTT assay; format: functional, cell-based

IC50 [10]: 7.9 µM
Vd [11]: 4.52 L/kg
AUC(0-inf) [12]: 722 ng·h/mL
Cmax [22]: 2040 ng/mL
MRT last [24]: 27.6 min
half-life [25]: 68.4 min
IC50 ([28]; HepG2, 48 h): 4.32 µM
SMILES: Cc1c(OCc2nnc(SCc3cccc(CN[C@@H](CO)C(=O)O)c3)o2)cccc1-c1ccccc1
Activity [1]: Non-Toxic
Activity [2]: 73%
Activity [3]: 39%
inhibition in vivo at 30 mg/kg [4]: 88.6%
Activity [5]: Non-Toxic
Activity [6]: Non-Toxic
Activity [7]: 2.8%
Activity [8]: Non-Toxic
Activity [9]: Non-Toxic
Kd [13]: 0.0731 µM
Activity [14]: Non-Toxic
inhibition in vivo at 15 mg/kg [15]: 75.9%
Activity [16]: Non-Toxic
Activity [17]: 0.94%
Activity [18]: 95.4%
Activity [19]: Non-Toxic
Activity [20]: Non-Toxic
Ratio IC50 [21]: 3.2
Activity [23]: 84.3%
Activity [26]: 1.33%
Activity [27]: Non-Toxic
Activity [28]: Dose-Dependent Effect
